Experimental data: patent US5837868A, “Process for preparation of chiral 3-amino-pyrrolidine and analogous bicyclic compounds” (Abbott Laboratories, priority 1997, dated 1998)

Legend:
Staph. aureus ATCC 6538P = assay: In vitro antibacterial activity, agar dilution MIC; assay type: cell-based; details: Staph. aureus ATCC 6538P; BHI agar dilution, 20-24 hours
Experimental: (§1) Each plate was inoculated with 1:100 (or 1:10 for slow-growing strains, primarily Micrococcus and Streptococcus) dilutions of up to 32 different microorganisms, using a Steers replicator block calibrated to deliver approximately 10^4 colony forming units (CFUs). The inoculated plates were incubated at from about 35° C. to about 37° C. for approximately 20-24 hours. In addition, a control plate using BHI agar containing no test compound was prepared and incubated at the beginning and at the end of each test. The quinolone antibacterial ciprofloxacin was used as a control ("Cntl").
(§2) The MIC was defined as the lowest concentration of test compound yielding no growth (a slight haze or sparsely isolated colonies at the inoculum spot) as compared to the growth control containing no test compound.

Staph. aureus A5177 = assay: In vitro antibacterial activity, agar dilution MIC; assay type: cell-based; details: Staph. aureus A5177; BHI agar dilution, 20-24 hours
Experimental: as §1, §2

Staph. aureus 5278 = assay: In vitro antibacterial activity, agar dilution MIC; assay type: cell-based; details: Staph. aureus 5278; BHI agar dilution, 20-24 hours
Experimental: as §1, §2

Staph. aureus 642A = assay: In vitro antibacterial activity, agar dilution MIC; assay type: cell-based; details: Staph. aureus 642A; BHI agar dilution, 20-24 hours
Experimental: as §1, §2

Staph. aureus CMX 553 = assay: In vitro antibacterial activity, agar dilution MIC; assay type: cell-based; details: Staph. aureus CMX 553; BHI agar dilution, 20-24 hours
Experimental: as §1, §2

[1] = test system: Staph. aureus 1775 Cipro. R.; assay: In vitro antibacterial activity, agar dilution MIC; assay type: cell-based; details: Staph. aureus 1775 Cipro. R.; BHI agar dilution, 20-24 hours
Experimental: as §1, §2

Staph. epidermidis 3519 = assay: In vitro antibacterial activity, agar dilution MIC; assay type: cell-based; details: Staph. epidermidis 3519; BHI agar dilution, 20-24 hours
Experimental: as §1, §2

[2] = test system: Entero. faecium ATCC 8043; assay: In vitro antibacterial activity, agar dilution MIC; assay type: cell-based; details: Entero. faecium ATCC 8043; BHI agar dilution, 20-24 hours
Experimental: as §1, §2

Strep. bovis A5169 = assay: In vitro antibacterial activity, agar dilution MIC; assay type: cell-based; details: Strep. bovis A5169; BHI agar dilution, 20-24 hours
Experimental: as §1, §2

[3] = test system: Strep. agalactiae CMX 508; assay: In vitro antibacterial activity, agar dilution MIC; assay type: cell-based; details: Strep. agalactiae CMX 508; BHI agar dilution, 20-24 hours
Experimental: as §1, §2

Strep. pyogenes EES61 = assay: In vitro antibacterial activity, agar dilution MIC; assay type: cell-based; details: Strep. pyogenes EES61; BHI agar dilution, 20-24 hours
Experimental: as §1, §2

[4] = test system: Strep. pyogenes 930 CONST; assay: In vitro antibacterial activity, agar dilution MIC; assay type: cell-based; details: Strep. pyogenes 930 CONST; BHI agar dilution, 20-24 hours
Experimental: as §1, §2

[5] = test system: Strep. pyogenes 2548 INDUC; assay: microbe, parasite or virus in culture; assay type: cell-based; details: Strep. pyogenes 2548 INDUC; BHI agar dilution, 20-24 hours
Experimental: as §1, §2

M. luteus ATCC 9341 = assay: In vitro antibacterial activity, agar dilution MIC; assay type: cell-based; details: M. luteus ATCC 9341; BHI agar dilution, 20-24 hours
Experimental: as §1, §2

M. luteus ATCC 4698 = assay: In vitro antibacterial activity, agar dilution MIC; assay type: cell-based; details: M. luteus ATCC 4698; BHI agar dilution, 20-24 hours
Experimental: as §1, §2

Escherichia coli Juhl = assay: In vitro antibacterial activity, agar dilution MIC; assay type: cell-based; details: Escherichia coli Juhl; BHI agar dilution, 20-24 hours
Experimental: as §1, §2

E. coli SS = assay: In vitro antibacterial activity, agar dilution MIC; assay type: cell-based; details: E. coli SS; BHI agar dilution, 20-24 hours
Experimental: as §1, §2

E. coli DC-2 = assay: In vitro antibacterial activity, agar dilution MIC; assay type: cell-based; details: E. coli DC-2; BHI agar dilution, 20-24 hours
Experimental: as §1, §2

E. coli H560 = assay: In vitro antibacterial activity, agar dilution MIC; assay type: cell-based; details: E. coli H560; BHI agar dilution, 20-24 hours
Experimental: as §1, §2

E. coli KNK 437 = assay: In vitro antibacterial activity, agar dilution MIC; assay type: cell-based; details: E. coli KNK 437; BHI agar dilution, 20-24 hours
Experimental: as §1, §2

[6] = test system: Enter. aerogenes ATCC 13048; assay: In vitro antibacterial activity, agar dilution MIC; assay type: cell-based; details: Enter. aerogenes ATCC 13048; BHI agar dilution, 20-24 hours
Experimental: as §1, §2

[7] = test system: Klebs. pneumoniae ATCC 8045; assay: In vitro antibacterial activity, agar dilution MIC; assay type: cell-based; details: Klebs. pneumoniae ATCC 8045; BHI agar dilution, 20-24 hours
Experimental: as §1, §2

[8] = test system: Providencia stuartii CMX 640; assay: In vitro antibacterial activity, agar dilution MIC; assay type: cell-based; details: Providencia stuartii CMX 640; BHI agar dilution, 20-24 hours
Experimental: as §1, §2

P. aeruginosa BMH 10 = assay: In vitro antibacterial activity, agar dilution MIC; assay type: cell-based; details: P. aeruginosa BMH 10; BHI agar dilution, 20-24 hours
Experimental: as §1, §2

P. aeruginosa A5007 = assay: In vitro antibacterial activity, agar dilution MIC; assay type: cell-based; details: P. aeruginosa A5007; BHI agar dilution, 20-24 hours
Experimental: as §1, §2

P. aeruginosa K799/WT = assay: In vitro antibacterial activity, agar dilution MIC; assay type: cell-based; details: P. aeruginosa K799/WT; BHI agar dilution, 20-24 hours
Experimental: as §1, §2

P. aeruginosa K799/61 = assay: In vitro antibacterial activity, agar dilution MIC; assay type: cell-based; details: P. aeruginosa K799/61; BHI agar dilution, 20-24 hours
Experimental: as §1, §2

Pseudomonas cepacia 296I = assay: In vitro antibacterial activity, agar dilution MIC; assay type: cell-based; details: Pseudomonas cepacia 296I; BHI agar dilution, 20-24 hours
Experimental: as §1, §2

[9] = test system: Acinetob. calcoaceticus CMX 669; assay: In vitro antibacterial activity, agar dilution MIC; assay type: cell-based; details: Acinetob. calcoaceticus CMX 669; BHI agar dilution, 20-24 hours
Experimental: as §1, §2

P. aeruginosa 2862 = assay: In vitro antibacterial activity, agar dilution MIC; assay type: cell-based; details: P. aeruginosa 2862; BHI agar dilution, 20-24 hours
Experimental: as §1, §2

Myco. smegmatis ATCC 114 = assay: In vitro antibacterial activity, agar dilution MIC; assay type: cell-based; details: Myco. smegmatis ATCC 114; BHI agar dilution, 20-24 hours
Experimental: as §1, §2

[10] = test system: Nocardia asteroides ATCC 9970; assay: In vitro antibacterial activity, agar dilution MIC; assay type: cell-based; details: Nocardia asteroides ATCC 9970; BHI agar dilution, 20-24 hours
Experimental: as §1, §2

P. aeruginosa 5263 = details: BHI agar dilution, 20-24 hours
Experimental: as §1, §2

Candida albicans CCH 442 = assay: In vitro antibacterial activity, agar dilution MIC; details: Candida albicans CCH 442; BHI agar dilution, 20-24 hours
Experimental: as §1, §2

`CC[C@@H]1CN(c2c(F)cn3c(=O)c(C(=O)O)cc(C4CC4)c3c2C)C[C@H]1N.Cl` (single isomer, unassigned; diastereomer a) [Ex. 2, 8-(trans-3-amino-4-ethylpyrrolidin-1-yl)-1-cyclopropyl-7-fluoro-4H-9-methyl-4-oxo-quinolizine-3-carboxylic acid hydrochloride diastereomer A] showed an MIC (Staph. aureus ATCC 6538P) of 0.02 µg/mL, an MIC (Staph. aureus A5177) of 0.02 µg/mL and an MIC (Staph. aureus 5278) of 0.05 µg/mL. It also gave an MIC (Staph. aureus 642A) of 0.02 µg/mL, an MIC (Staph. aureus CMX 553) of 0.02 µg/mL and an MIC [1] of 0.78 µg/mL. For the same compound, the MIC (Staph. epidermidis 3519) was 0.05 µg/mL, the MIC [2] was 0.05 µg/mL and the MIC (Strep. bovis A5169) was 0.1 µg/mL. The MIC [3] was 0.02 µg/mL, the MIC (Strep. pyogenes EES61) was 0.02 µg/mL and the MIC [4] was 0.05 µg/mL. For the same compound, the MIC [5] was 0.05 µg/mL, the MIC (M. luteus ATCC 9341) was 0.05 µg/mL and the MIC (M. luteus ATCC 4698) was 0.05 µg/mL. It also gave an MIC (Escherichia coli Juhl) of 0.01 µg/mL, an MIC (E. coli SS) of 0.001 µg/mL and an MIC (E. coli DC-2) of 0.1 µg/mL. For the same compound, the MIC (E. coli H560) was 0.01 µg/mL, the MIC (E. coli KNK 437) was 0.1 µg/mL and the MIC [6] was 0.1 µg/mL. The MIC [7] was 0.05 µg/mL, the MIC [8] was 0.39 µg/mL and the MIC (P. aeruginosa BMH 10) was 0.2 µg/mL. It also gave an MIC (P. aeruginosa A5007) of 0.39 µg/mL, an MIC (P. aeruginosa K799/WT) of 0.78 µg/mL and an MIC (P. aeruginosa K799/61) of 0.1 µg/mL. For the same compound, the MIC (Pseudomonas cepacia 296I) was 1.56 µg/mL, the MIC [9] was 0.05 µg/mL and the MIC (P. aeruginosa 2862) was 6.2 µg/mL. For the same compound, the MIC (Myco. smegmatis ATCC 114) was 0.02 µg/mL, the MIC [10] was 0.78 µg/mL and the MIC (P. aeruginosa 5263) was 3.1 µg/mL. The MIC (Candida albicans CCH 442) was > 100 µg/mL.
